# US8859549B2, “Potassium channel modulators” (AbbVie, Inc., priority 2011, dated 2014)
# pEC50: −log10 of the molar value.
# Target: T1, KCNQ 2/3 channels (Homo sapiens, UniProt O43525+O43526)
# T1 construct: expressed in transfected cells; host or cells: HEK293
# Experiment: KCNQ 2/3 channel activation, thallium flux FLIPR assay (BTC-AM dye)
# Format: cell-based
# Conditions: for Emax: HEK293, maximum response relative to the response of 10 μM retigabine (set at 100%), HEK293 KCNQ2/KCNQ3 cells, read-out: % MAX; for pEC50: HEK293 cells stably expressing human KCNQ2 and KCNQ3 subunits, thallium-induced fluorescence, 4 min compound incubation
# Procedure: The following example describes the assay that can be used to identify compounds that activate KCNQ 2/3 channels.
# HEK293 cells stably expressing human KCNQ2 and KCNQ3 subunits were seeded in 96-well, black-walled, clear-bottomed, poly-D-lysine coated plates (BD Biosciences, Bedford, Mass.) at a density of 1×10^5 cells per well 24 hours before the assay. On the assay day, BTC-AM dye (Invitrogen, Carlsbad, Calif.) was loaded into the cells by replacing the cell culture medium with 55 μL/well of 3 μg/mL dye in DPBS. Dye loading was allowed to proceed for 2 hours at room temperature and then cells were washed twice with 50 μL/well of assay buffer (in mM: 10 HEPES pH 7.3, 5 glucose, 140 Na-gluconate, 2.5 K-gluconate, 3.6 Ca-gluconate, 2 MgSO4, 0.1 Ouabain) to remove unloaded dye. Cells were incubated in 50 μL of assay buffer before loading onto a FLIPR system (Molecular Devices, Sunnyvale, Calif.). Various concentrations of compounds to be assayed were added to the cells in 50 μL of assay buffer and incubated for 4 minutes. The fluorescence signal was initiated by adding 100 μL of assay buffer containing 6 mM TlNO3 and 10 mM K2SO4. Fluors were excited using the 488-nm line of an argon laser and emission was filtered using a 540±30 nm bandpass filter. Fluorescent signals were recorded for 3 minutes. Sums of the responses over basal responses were plotted versus concentrations of test compounds to obtain an EC50 value. The maximum response for each test compound was determined relative to the response produced by 10 μM retigabine. The maximum response of retigabine at 10 μM was set at 100%.
SMILES,Emax,pEC50
"N#Cc1ccc(S(=O)(=O)c2nn(NC(=O)Cc3ccc(Cl)cc3)c(=O)c3ccccc23)cc1 [Example 222, 2-(4-chlorophenyl)-N-{4-[(4-cyanophenyl)sulfonyl]-1-oxophthalazin-2(1H)-yl}acetamide]",90%,7.01
"O=C(CC1CC2CCC1C2)Nn1nc(-c2ccnc(C(=O)O)c2)c2ccccc2c1=O (racemic) [Example 75, (±)-4-(3-{[(exo)-bicyclo[2.2.1]hept-2-ylacetyl]amino}-4-oxo-3,4-dihydrophthalazin-1-yl)pyridine-2-carboxylic acid]",183%,5.39
"COc1cccc(CC(=O)Nn2nc(N3CCOCC3)c3ccccc3c2=O)c1 [Example 146, 2-(3-methoxyphenyl)-N-[4-(morpholin-4-yl)-1-oxophthalazin-2(1H)-yl]acetamide]",17.6%,
"O=C(Cc1ccc(Cl)cc1)Nn1nc(N2CCOCC2)c2ccccc2c1=O [Example 2, 2-(4-chlorophenyl)-N-[4-(morpholin-4-yl)-1-oxophthalazin-2(1H)-yl]acetamide]",117%,5.57
"O=C(Cc1ccc(Cl)cc1)Nn1nc(N2CCCCC2)c2ccccc2c1=O [Example 24, 2-(4-chlorophenyl)-N-[1-oxo-4-(piperidin-1-yl)phthalazin-2(1H)-yl]acetamide]",140%,7.07
"O=C(Cc1ccc(Cl)cc1)Nn1nc(N2CCN(Cc3ccccc3)CC2)c2ccccc2c1=O [Example 101, N-[4-(4-benzylpiperazin-1-yl)-1-oxophthalazin-2(1H)-yl]-2-(4-chlorophenyl)acetamide]",112%,5.46
"O=C(Cc1ccc2ccccc2c1)Nn1nc(N2CCOCC2)c2ccccc2c1=O [Example 166, N-[4-(morpholin-4-yl)-1-oxophthalazin-2(1H)-yl]-2-(naphthalen-2-yl)acetamide]",15.6%,
"O=C(Cc1cccc2ccccc12)Nn1nc(N2CCOCC2)c2ccccc2c1=O [Example 165, N-[4-(morpholin-4-yl)-1-oxophthalazin-2(1H)-yl]-2-(naphthalen-1-yl)acetamide]",7.96%,
"O=C(Cc1ccccc1Br)Nn1nc(N2CCOCC2)c2ccccc2c1=O [Example 153, 2-(2-bromophenyl)-N-[4-(morpholin-4-yl)-1-oxophthalazin-2(1H)-yl]acetamide]",1.17%,
"O=C(Cc1ccc(Cl)cc1)Nn1nc(S(=O)(=O)c2ccncc2)c2ccccc2c1=O [Example 203, 2-(4-chlorophenyl)-N-[1-oxo-4-(pyridin-4-ylsulfonyl)phthalazin-2(1H)-yl]acetamide]",85%,6.21
"O=C(CC1CC2CCC1C2)Nn1nc(-c2cccnc2)c2ccccc2c1=O (racemic) [Example 8, (±)-2-[(exo)-bicyclo[2.2.1]hept-2-yl]-N-[1-oxo-4-(pyridin-3-yl)phthalazin-2(1H)-yl]acetamide]",129%,6.34
"O=C(CC1CC2CCC1C2)Nn1nc(Nc2cccc(Cl)c2)c2ccccc2c1=O (racemic) [Example 35, (±)-2-[(exo)-bicyclo[2.2.1]hept-2-yl]-N-{4-[(3-chlorophenyl)amino]-1-oxophthalazin-2(1H)-yl}acetamide]",11.4%,
"O=C(Cc1ccccc1F)Nn1nc(N2CCOCC2)c2ccccc2c1=O [Example 148, 2-(2-fluorophenyl)-N-[4-(morpholin-4-yl)-1-oxophthalazin-2(1H)-yl]acetamide]",18.7%,
"O=C(Cc1ccc(Cl)cc1)Nn1nc(Cc2ccc(Cl)nc2)c2ccccc2c1=O [Example 32, 2-(4-chlorophenyl)-N-{4-[(6-chloropyridin-3-yl)methyl]-1-oxophthalazin-2(1H)-yl}acetamide]",46.2%,6.83
"O=C(Cc1cccc(F)c1F)Nn1nc(N2CCOCC2)c2ccccc2c1=O [Example 175, 2-(2,3-difluorophenyl)-N-[4-(morpholin-4-yl)-1-oxophthalazin-2(1H)-yl]acetamide]",17.3%,
"CC(C)(CC(=O)Nn1nc(S(=O)(=O)c2ccc(C#N)cc2)c2ccccc2c1=O)c1ccccc1 [Example 225, N-{4-[(4-cyanophenyl)sulfonyl]-1-oxophthalazin-2(1H)-yl}-3-methyl-3-phenylbutanamide]",37.3%,6.84
"O=C(Cc1ccc(Cl)cc1)Nn1nc(-c2cccnc2)c2ccccc2c1=O [Example 9, 2-(4-chlorophenyl)-N-[1-oxo-4-(pyridin-3-yl)phthalazin-2(1H)-yl]acetamide]",19.6%,

SMILES,Emax,pEC50
"O=C(Cc1ccc(Cl)cc1)Nn1nc(-c2ccc(Cl)nc2)c2ccccc2c1=O [Example 5, 2-(4-chlorophenyl)-N-[4-(6-chloropyridin-3-yl)-1-oxophthalazin-2(1H)-yl]acetamide]",85.2%,6.33
"O=C(Cc1ccc(Cl)cc1)Nn1nc(C(=O)O)c2ccccc2c1=O [Example 65, 3-{[(4-chlorophenyl)acetyl]amino}-4-oxo-3,4-dihydrophthalazine-1-carboxylic acid]",30.1%,
"O=C(Cc1cc(F)cc(F)c1)Nn1nc(S(=O)(=O)c2ccc(Br)cc2)c2ccccc2c1=O [Example 202, N-{4-[(4-bromophenyl)sulfonyl]-1-oxophthalazin-2(1H)-yl}-2-(3,5-difluorophenyl)acetamide]",106%,7.19
"O=C(Cc1ccc(Cl)cc1)Nn1nc([S+]([O-])c2ccccc2)c2ccccc2c1=O (centres unmarked) [Example 82, 2-(4-chlorophenyl)-N-[1-oxo-4-(phenylsulfinyl)phthalazin-2(1H)-yl]acetamide]",119%,6.06
"O=C(Cc1ccc(Cl)cc1)Nn1nc(-c2ccnc(C(F)(F)F)c2)c2ccccc2c1=O [Example 77, 2-(4-chlorophenyl)-N-{1-oxo-4-[2-(trifluoromethyl)pyridin-4-yl]phthalazin-2(1H)-yl}acetamide]",74.9%,6.34
"O=C(Cc1ccc(F)cc1)Nn1nc(S(=O)(=O)c2ccccc2)c2ccccc2c1=O [Example 193, 2-(4-fluorophenyl)-N-[1-oxo-4-(phenylsulfonyl)phthalazin-2(1H)-yl]acetamide]",87.9%,7.10
"CCC1CN(c2nn(NC(=O)CC3CC4CCC3C4)c(=O)c3ccccc23)CCO1 (racemic) [Example 220, (±)-2-[(exo)-bicyclo[2.2.1]hept-2-yl]-N-[4-(2-ethylmorpholin-4-yl)-1-oxophthalazin-2(1H)-yl]acetamide]",139%,7.24
"O=C(Cc1cc(F)cc(F)c1)Nn1nc([S+]([O-])c2ccccc2)c2ccccc2c1=O (centres unmarked) [Example 83, 2-(3,5-difluorophenyl)-N-[1-oxo-4-(phenylsulfinyl)phthalazin-2(1H)-yl]acetamide]",105%,5.96
"O=C(CC1CC2CCC1C2)Nn1nc(NCc2ccccc2)c2ccccc2c1=O (racemic) [Example 34, (±)-N-[4-(benzylamino)-1-oxophthalazin-2(1H)-yl]-2-[(exo)-bicyclo[2.2.1]hept-2-yl]acetamide]",161%,6.85
"O=C(Cc1ccccc1)Nn1nc(N2CCOCC2)c2ccccc2c1=O [Example 111, N-[4-(morpholin-4-yl)-1-oxophthalazin-2(1H)-yl]-2-phenylacetamide]",70.7%,4.76
"O=C(CC1CC2CCC1C2)Nn1nc(Cc2cc[n+]([O-])cc2)c2ccccc2c1=O (racemic) [Example 100, (±)-2-[(exo)-bicyclo[2.2.1]hept-2-yl]-N-{4-[(1-oxidopyridin-4-yl)methyl]-1-oxophthalazin-2(1H)-yl}acetamide]",53.4%,6.04
"N#Cc1ccc(S(=O)(=O)c2nn(NC(=O)Cc3ccc(F)cc3)c(=O)c3ccccc23)cc1 [Example 224, N-{4-[(4-cyanophenyl)sulfonyl]-1-oxophthalazin-2(1H)-yl}-2-(4-fluorophenyl)acetamide]",75.2%,6.81
"O=C(Cc1cc(F)cc(F)c1)Nn1nc(Oc2ccccc2)c2ccccc2c1=O [Example 38, 2-(3,5-difluorophenyl)-N-(1-oxo-4-phenoxyphthalazin-2(1H)-yl)acetamide]",122%,7.50
"Cc1ccsc1-c1nn(NC(=O)C[C@@H]2C[C@@H]3C=C[C@H]2C3)c(=O)c2ccccc12 [Example 17, 2-[(1S,2S,4S)-bicyclo[2.2.1]hept-5-en-2-yl]-N-[4-(3-methylthiophen-2-yl)-1-oxophthalazin-2(1H)-yl]acetamide]",139%,6.68
"O=C(Cc1ccc(C(F)(F)F)cc1)Nn1nc(N2CCOCC2)c2ccccc2c1=O [Example 161, N-[4-(morpholin-4-yl)-1-oxophthalazin-2(1H)-yl]-2-[4-(trifluoromethyl)phenyl]acetamide]",93%,
"O=C(Cc1cc(F)cc(F)c1)Nn1nc(N2CCCCC2)c2ccccc2c1=O [Example 22, 2-(3,5-difluorophenyl)-N-[1-oxo-4-(piperidin-1-yl)phthalazin-2(1H)-yl]acetamide]",134%,7.06
